From patent publication US20130079345A1, “[…] ACTIVE DISUBSTITUTED TRIAZINE DERIVATIVES” (BAYER INTELLECTUAL PROPERTY GMBH, priority 2010, published 2013)
Where a name gives a salt, the structure may show the parent alone.

Legend:
CDK9 = target: T1, CDK9 (Homo sapiens, UniProt P50750); test: Lance Ultra KinaSelect Assay, CDK9; type: biochemical; conditions: read-out: Inhibition (IC50) CDK9
T1 construct: purchased Invitrogen
Experimental: (§1) This protocol describes how the Lance Ultra KinaSelect Assay was performed to determine half maximal inhibitory concentration (IC50) of compounds of general formula (I) and CDK/Cyclin complexes. The principle behind this enzymatic assay is based upon the phosphorylation of the ULight-Peptide Substrat. It is detected by using a specific EU-labeled anti-phospho peptide antibody. The binding of the Eu-labeled anti-phospho peptide antibody to the phosphorylated U Light labeled peptide gives rise to a FRET-signal. Binding of an inhibitor to the kinase prevents phosphorylation of the ULight-MBP Substrat, resulting in a loss of FRET.
(§2) The compounds of general formula (I) summarized in Table 5 were diluted from a 10 mM DMSO stock solution 1:10 in a total volume of 15 μL DMSO. This compound predilution was then serial diluted 1:3 over 8 steps in DMSO and briefly spun down. Each compound solution was now diluted 1:20 in Enzymatic Buffer (HEPES: 50 mM, pH: 7.5; MgCl2: 10 mM; EGTA: 1 mM; DTT: 2 mM; Tween-20: 0.01%), mixed thoroughly and spun down. For every sample, 2 μL of the diluted compound were mixed with 6 μL CDK/Cyclin/Substrat solution and […] in a well of a small volume 384 well plate (Corning Incorporated, Corning, N.Y., USA; order no. 3673). […] For positive controls, in each well 2 μL of DMSO solution (1% final DMSO assay concentration) was mixed with 6 μL CDK/Cyclin/Substrat (appropriate final concentration see Table 3) and 2 μL Tracer ATP solution (appropriate final concentration see Table 3). Positive and negative controls were calculated from at least 8 different sample wells. The 384 well plates were mixed in a Teleshaker plate mixer (Beckman Coulter, Brea, Calif., USA) at 2000 rpm for 40 sec, and incubated for 1 h at room temperature. Before reading, 10 μL detection buffer (Lance Detection Buffer 1×; EDTA: […]; Eu-Anti-P-MBP: see Table 3) was added. The FRET signal was measured at 340 nm excitation, 665 nm and 615 nm emission (for the kinase tracer and LanthaScreen Eu-AB, respectively) with an Envision spectrophotometer (Perkin Elmer, Waltham, Mass., USA) with 50 μs delay and 300 μs integration time. IC50 values were determined from the sigmoidal dose response curves with the software Quattro Workflow (Quattro GmbH, Munich, Germany).

[1] = system: LPS-induced TNF alpha release in PBMCs; test: TNF alpha release assay; type: cell-based; conditions: Homo sapiens, PBMC, 6 h, 1 μg/mL LPS
Experimental: Freshly isolated peripheral blood mononuclear cells (PBMCs) were seeded in 96-well cell culture plates with 200,000 cells in 100 μl cell culture medium (DMEM cell culture medium+glutamine from PAN Biotech GmbH, Aidenbach, Germany) supplemented with 10% fetal calf serum (PAA Laboratories GmbH, Pasching, Austria) per well and incubated overnight at 37° C., 5% CO2. To each well, 100 μL cell culture medium with 2× concentrated test compounds diluted from 10 mM DMSO stocks, or 100 μL DMEM with 0.4% DMSO for control wells, was added. The compounds of general formula (I) summarized in Table 6 were used in this assay. After incubation for 1 h at 37° C., 5% CO2, cells were stimulated with 1 μg/mL LPS (Lipopolysaccharides, Sigma, catalog #L4391-1MG; 1 mg/ml stock solution), or left untreated for negative controls, and plates were incubated for 6 h at 37° C./5% CO2. The cell culture plates were centrifuged at 2000 rpm for 5 minutes, and supernatants were transferred to fresh 96-well polypropylene plates. 25 µL of supernatants were transferred into 96-well-plates of the human TNF alpha-tissue culture kit (Meso Scale Discovery, Gaithersburg, Md., USA), and manufacturer's instructions were followed for analysis of TNF alpha levels. Chemoluminescence was measured in the Mesoscale Sector Imager, and EC50 values were calculated with the software Excel Fit (IDBS, Guildford, UK) from 2-fold dilution series comprising at least 6 concentrations in duplicates.

CDK7/CyclinH/Mat1 = target: T2, CDK7/CyclinH/Mat1 (Homo sapiens, UniProt P50613); test: LanthaScreen Eu Kinase Binding Assay, CDK7; conditions: tracer 236, read-out: Affinity (Kd) CDK7
T2 construct: purchased Carna Biosciences
Outline: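 TR-FRET competition binding with Alexa Fluor 647 tracer and Eu-anti-GST antibody; e.g. CDK2/Cyclin A 15 nM with tracer 236 60 nM (working solutions). Kinase buffer: HEPES 20 mM pH 8.0, MgCl2 10 mM, DTT 1 mM, Brij-35 0.01%; 8-point 1:3 series, 1 h at room temperature; Kd from sigmoidal dose-response curves.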

CDK4/CyclinD1 = target: T3, CDK4/CyclinD1 (Homo sapiens, UniProt P11802); test: Lance Ultra KinaSelect Assay, CDK4; type: biochemical; conditions: ATP 90 μM, read-out: Inhibition (IC50) CDK4
T3 construct: purchased Invitrogen
Experimental: as §1, §2

T3 sequence (P11802 whole entry): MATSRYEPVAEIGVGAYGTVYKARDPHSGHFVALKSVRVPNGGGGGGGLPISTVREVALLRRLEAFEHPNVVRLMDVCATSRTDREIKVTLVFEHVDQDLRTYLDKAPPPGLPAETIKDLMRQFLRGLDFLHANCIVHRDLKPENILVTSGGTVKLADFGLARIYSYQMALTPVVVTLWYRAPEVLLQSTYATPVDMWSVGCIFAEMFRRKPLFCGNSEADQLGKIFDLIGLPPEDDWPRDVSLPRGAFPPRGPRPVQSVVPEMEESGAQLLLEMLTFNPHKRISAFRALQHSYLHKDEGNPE
T3 sequence (P24385 whole entry partner): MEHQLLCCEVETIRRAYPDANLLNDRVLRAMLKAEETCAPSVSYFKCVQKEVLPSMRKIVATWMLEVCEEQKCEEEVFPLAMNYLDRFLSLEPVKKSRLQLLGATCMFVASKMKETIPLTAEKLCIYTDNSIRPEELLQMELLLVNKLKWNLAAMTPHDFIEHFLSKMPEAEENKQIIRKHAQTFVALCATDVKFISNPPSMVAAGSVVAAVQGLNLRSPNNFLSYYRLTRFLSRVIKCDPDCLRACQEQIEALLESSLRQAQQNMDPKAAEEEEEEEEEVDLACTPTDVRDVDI
T1 sequence (P50750 whole entry): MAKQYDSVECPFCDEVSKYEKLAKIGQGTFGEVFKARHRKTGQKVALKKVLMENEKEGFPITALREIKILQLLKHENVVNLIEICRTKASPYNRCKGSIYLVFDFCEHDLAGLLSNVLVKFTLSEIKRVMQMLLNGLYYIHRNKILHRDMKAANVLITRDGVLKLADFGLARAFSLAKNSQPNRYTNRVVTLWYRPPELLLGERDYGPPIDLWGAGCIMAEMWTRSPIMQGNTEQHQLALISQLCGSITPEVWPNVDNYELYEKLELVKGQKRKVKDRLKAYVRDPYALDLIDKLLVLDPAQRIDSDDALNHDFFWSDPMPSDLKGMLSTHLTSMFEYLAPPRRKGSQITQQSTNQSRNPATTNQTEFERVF
T2 sequence (P50613 whole entry): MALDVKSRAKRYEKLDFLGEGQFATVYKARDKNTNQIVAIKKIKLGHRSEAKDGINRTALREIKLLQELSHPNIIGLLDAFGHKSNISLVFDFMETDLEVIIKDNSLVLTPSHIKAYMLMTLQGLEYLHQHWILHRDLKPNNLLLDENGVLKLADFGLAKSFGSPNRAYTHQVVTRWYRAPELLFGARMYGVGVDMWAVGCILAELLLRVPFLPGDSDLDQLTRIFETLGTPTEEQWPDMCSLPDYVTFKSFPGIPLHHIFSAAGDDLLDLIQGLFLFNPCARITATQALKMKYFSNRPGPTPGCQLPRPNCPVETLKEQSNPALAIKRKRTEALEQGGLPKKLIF
T2 sequence (P51946 whole entry partner): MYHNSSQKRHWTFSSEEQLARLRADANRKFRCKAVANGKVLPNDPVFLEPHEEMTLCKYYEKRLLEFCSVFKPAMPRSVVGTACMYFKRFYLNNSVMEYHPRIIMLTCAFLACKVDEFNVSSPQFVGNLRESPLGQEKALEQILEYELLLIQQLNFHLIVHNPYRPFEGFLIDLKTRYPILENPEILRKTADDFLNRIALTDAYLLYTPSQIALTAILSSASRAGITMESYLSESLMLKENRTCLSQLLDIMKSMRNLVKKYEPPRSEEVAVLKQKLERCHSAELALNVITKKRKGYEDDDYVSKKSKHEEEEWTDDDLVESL
T2 sequence (P51948 whole entry partner): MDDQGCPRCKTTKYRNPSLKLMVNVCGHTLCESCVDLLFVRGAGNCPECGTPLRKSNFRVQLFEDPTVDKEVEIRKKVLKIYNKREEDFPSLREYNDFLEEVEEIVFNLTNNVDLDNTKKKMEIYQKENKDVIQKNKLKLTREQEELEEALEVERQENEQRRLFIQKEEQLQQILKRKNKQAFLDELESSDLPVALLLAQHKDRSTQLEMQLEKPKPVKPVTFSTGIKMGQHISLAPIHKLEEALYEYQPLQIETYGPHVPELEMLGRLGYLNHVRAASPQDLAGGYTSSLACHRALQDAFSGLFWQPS

SMILES	IC50 (CDK9) [nM]	IC50 [1] [nM]	Kd (CDK7/CyclinH/Mat1) [nM]	IC50 (CDK4/CyclinD1) [nM]
COc1cc(F)ccc1-c1ncnc(Nc2cccc(CS(N)(=O)=O)c2)n1 [Compound B2, 3-[(4-(4-Fluoro-2-methoxyphenyl)-1,3,5-triazin-2-yl)amino]benzenemethanesulfonamide]	10.6	1030	> 10000	
NS(=O)(=O)Cc1cccc(Nc2ncnc(-c3ccccc3Oc3ccccc3)n2)c1 [Compound B14, 1-(3-{[4-(2-phenoxyphenyl)-1,3,5-triazin-2-yl]amino}phenyl)methanesulfonamide]	9		> 10000	
NS(=O)(=O)Cc1cccc(Nc2ncnc(-c3ccccc3OCc3ccccc3)n2)c1 [Compound B13, 3-[(4-(2-Benzyloxyphenyl)-1,3,5-triazin-2-yl)amino]benzenemethanesulfonamide]			> 10000	
NS(=O)(=O)Cc1cccc(Nc2ncnc(-c3ccccc3OCc3ccccc3)n2)c1 [B13′, 3-[(4-(2-Benzyloxyphenyl)-1,3,5-triazin-2-yl)amino]benzenemethanesulfonamide trifluoroacetic acid salt]	5.7	120		681
COc1cnccc1-c1ncnc(Nc2cccc(CS(N)(=O)=O)c2)n1 [Compound B19, 3-[(4-(3-Methoxypyridin-4-yl)-1,3,5-triazin-2-yl)amino]benzenemethanesulfonamide]		10600	> 10000	
COc1ccccc1-c1ncnc(Nc2cccc(NS(C)(=O)=O)c2)n1 [Compound K1, N-[3-((4-(2-Methoxyphenyl)-1,3,5-triazin-2-yl)amino)phenyl]-methanesulfonamide]	72	4420	> 30000	> 10000
COc1cc(F)ccc1-c1ncnc(Nc2cccc(CCS(N)(=O)=O)c2)n1 [Compound D2, 2-[3-((4-(4-Fluoro-2-methoxyphenyl)-1,3,5-triazin-2-yl)amino)phenyl]ethanesulfonamide]	12.8		> 10000	> 10000
CCCS(=O)(=O)Nc1cccc(Nc2ncnc(-c3ccccc3OC)n2)c1 [Compound L1, N-[3-((4-(2-Methoxyphenyl)-1,3,5-triazin-2-yl)amino)phenyl]-propanesulfonamide]	111	2410	> 30000	> 10000
COc1ccccc1-c1ncnc(Nc2cccc(CS(N)(=O)=O)c2)n1 [B1′, 3-[(4-(2-Methoxyphenyl)-1,3,5-triazin-2-yl)amino]benzenemethanesulfonamide trifluoroacetic acid salt]	96.5	2710		> 10000
NS(=O)(=O)Cc1cccc(Nc2ncnc(-c3ccccc3OCc3ccncc3)n2)c1 [Compound B16, 3-[(4-(2-((4-Pyridinyl)methoxy)phenyl)-1,3,5-triazin-2-yl)amino]benzenemethanesulfonamide]	9		> 10000	> 10000
COc1ccccc1-c1ncnc(Nc2cccc(CS(N)(=O)=O)c2)n1 [Compound B1, 3-[(4-(2-Methoxyphenyl)-1,3,5-triazin-2-yl)amino]benzenemethanesulfonamide]			> 10000	
COc1cc(F)ccc1-c1ncnc(Nc2cccc(CS(N)(=O)=O)c2)n1 [B2′, 1-(3-{[4-(4-fluoro-2-methoxyphenyl)-1,3,5-triazin-2-yl]amino}phenyl)methanesulfonamide hydrochloride]	10.4			
COc1ccccc1-c1ncnc(Nc2ccccc2)n1 [Compound P1, 4-(2-Methoxyphenyl)-N-phenyl-1,3,5-triazine-2-amine]	937	13900	> 30000	
CCOc1ccccc1-c1ncnc(Nc2cccc(CS(N)(=O)=O)c2)n1 [Compound B12, 3-[(4-(2-Ethoxyphenyl)-1,3,5-triazin-2-yl)amino]benzenemethanesulfonamide]	102		> 10000	> 10000
COc1ccccc1-c1ncnc(Nc2cccc([N+](=O)[O-])c2)n1 [Compound H1, 4-(2-Methoxyphenyl)-N-(3-nitrophenyl)-1,3,5-triazine-2-amine]	194	2920	> 30000	
COc1cc(F)ccc1-c1ncnc(Nc2cccc(CS(N)(=O)=O)c2)n1 [B2″, 1-(3-{[4-(4-fluoro-2-methoxyphenyl)-1,3,5-triazin-2-yl]amino}phenyl)methanesulfonamide trifluoroacetic acid salt]	11.6			3210
COc1cccc(F)c1-c1ncnc(Nc2cccc(CS(N)(=O)=O)c2)n1 [Compound B4, 3-[(4-(6-Fluoro-2-methoxyphenyl)-1,3,5-triazin-2-yl)amino]benzenemethanesulfonamide]	201	6530	> 10000	> 10000
COc1ccccc1-c1ncnc(Nc2cccc(S(N)(=O)=O)c2)n1 [C1′, 3-[(4-(2-Methoxyphenyl)-1,3,5-triazin-2-yl)amino]benzenesulfonamide trifluoroacetic acid salt]	20.7	500	> 10000	1510
COc1ccccc1-c1ncnc(Nc2cccc(CCS(N)(=O)=O)c2)n1 [Compound D1, 2-[3-((4-(2-Methoxyphenyl)-1,3,5-triazin-2-yl)amino)phenyl]ethanesulfonamide]	139	5370	> 10000	9320
COc1ccc(F)cc1-c1ncnc(Nc2cccc(CS(N)(=O)=O)c2)n1 [Compound B3, 3-[(4-(5-Fluoro-2-methoxyphenyl)-1,3,5-triazin-2-yl)amino]benzenemethanesulfonamide]		3240	> 10000	
COc1cc(Cl)ccc1-c1ncnc(Nc2cccc(CS(N)(=O)=O)c2)n1 [Compound B6, 3-[(4-(4-Chloro-2-methoxyphenyl)-1,3,5-triazin-2-yl)amino]benzenemethanesulfonamide]	16.2		> 10000	> 10000
